From US20250051347A1, “BIFUNCTIONAL CHIMERIC HETEROCYCLIC COMPOUND AND USE THEREOF AS ANDROGEN RECEPTOR DEGRADER” (Hinova Pharmaceuticals, Inc., priority 2021, published 2025)
Where two headings read alike, the source gives them in different places.

Key:
[1] = target: T1, androgen receptor (AR) splicing variant AR-v7 (Homo sapiens, UniProt P10275); test: Degradation activity on androgen receptor splicing variant AR-v7 in 22RV1 cells (ELISA); assay type: cell-based; conditions: AR-v7 degradation in 22RV1 cells, 48 h, class symbols
T1 construct: The degradation activity of compounds on AR-v7 in 22RV1 cells; host or cells: 22RV1 cells
T1 sequence (P10275 1-644 isoform P10275-3): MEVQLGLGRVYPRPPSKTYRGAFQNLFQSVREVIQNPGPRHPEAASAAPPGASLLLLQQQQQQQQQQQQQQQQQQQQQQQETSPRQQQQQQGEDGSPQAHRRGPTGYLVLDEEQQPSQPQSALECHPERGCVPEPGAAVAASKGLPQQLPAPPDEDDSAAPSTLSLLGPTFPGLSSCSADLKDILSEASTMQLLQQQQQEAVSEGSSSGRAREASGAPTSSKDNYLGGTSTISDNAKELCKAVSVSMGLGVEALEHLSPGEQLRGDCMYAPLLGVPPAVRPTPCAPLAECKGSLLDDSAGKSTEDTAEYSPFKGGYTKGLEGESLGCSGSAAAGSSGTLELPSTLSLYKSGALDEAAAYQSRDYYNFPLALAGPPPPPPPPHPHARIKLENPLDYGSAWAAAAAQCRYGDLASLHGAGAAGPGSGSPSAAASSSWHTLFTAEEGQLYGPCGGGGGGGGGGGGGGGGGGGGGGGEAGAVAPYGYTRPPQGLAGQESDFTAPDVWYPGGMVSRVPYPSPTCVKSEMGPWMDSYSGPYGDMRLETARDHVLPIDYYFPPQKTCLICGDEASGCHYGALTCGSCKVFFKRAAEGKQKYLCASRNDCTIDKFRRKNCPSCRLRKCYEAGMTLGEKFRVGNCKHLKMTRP

[2] = Homo sapiens, 22Rv1, 144 h, read-out: 22RV1 IC50 (nM), 22RV1 cells, 6 days culture, CCK-8, OD 450 nm
[3] = Homo sapiens, 22Rv1, 144 h, read-out: 22RV1 IC50 (nM)

SMILES	IC50 (22RV1 cells; [2]) [nM]	DC50 [1] [nM]	IC50 (22RV1 cells; [3]) [nM]	IC50 (22RV1 cells; read-out: 22RV1 IC50, 22RV1 cells, 6 days culture, CCK-8, OD 450 nm) [nM]
Cc1nnc(-c2ncc(F)cc2Oc2ccc(C(C)(C)c3ccc(O[C@H]4C[C@H](Nc5ccc6c(c5)C(=O)N(C5CCC(=O)NC5=O)C6=O)C4)cc3)cc2)o1 (stereo partly drawn) [Example 95, 2-(2,6-dioxopiperidin-3-yl)-5-(((1r,3r)-3-(4-(2-(4-((5-fluoro-2-(5-methyl-1,3,4-oxadiazol-2-yl)pyridin-3-yl)oxy)phenyl)propan-2-yl)phenoxy)cyclobutyl)amino)isoindolin-1,3-dione]	6	< 10		
CC(C)(c1ccc(OCc2ccnc(N3CC(N4CCC4)C3)n2)cc1)c1ccc(O[C@H]2C[C@@H](Nc3ccc4c(c3)C(=O)N(C3CCC(=O)NC3=O)C4=O)C2)cc1 (stereo partly drawn) [Example 410]	6	< 10		
CC(C)(c1ccc(OCc2ccnc(N3CC4(COC4)C3)n2)cc1)c1ccc(C(=O)NC2CN(c3ccc4c(c3)C(=O)N(C3CCC(=O)NC3=O)C4=O)C2)cc1 (stereo not drawn) [Example 506, 4-(2-(4-((2-(2-oxa-6-azaspiro[3.3]heptan-6-yl)pyrimidin-4-yl)methoxy)phenyl)propan-2-yl)-N-(1-(2-(2,6-dioxopiperidin-3-yl)-1,3-dioxoisoindolin-5-yl)azetidin-3-yl)benzamide]	4	< 10		
CC(=O)c1ccc(Oc2ccc(C3(c4ccc(O[C@H]5C[C@H](Nc6ccc7c(c6)C(=O)N(C6CCC(=O)NC6=O)C7=O)C5)cc4)CCOCC3)cc2)nn1 (stereo partly drawn) [Example 106]	0.3	< 10		
CC(C)(c1ccc(OCCCNc2ccc3c(c2)C(=O)N(C2CCC(=O)NC2=O)C3=O)cc1)c1ccc(OCc2ccnc(N3CCC3)n2)cc1 (stereo not drawn) [Example 383]		11 to 100	34	
CCC(CC)(c1ccc(Oc2cnc(-c3noc(C)n3)nc2)cc1)c1ccc(O[C@H]2C[C@H](Nc3ccc4c(c3)C(=O)N(C3CCC(=O)NC3=O)C4=O)C2)cc1 (stereo partly drawn) [Example 380, 2-(2,6-dioxopiperidin-3-yl)-5-(((1r,3r)-3-(4-(3-(4-((2-(5-methyl-1,2,4-oxadiazol-3-yl)pyrimidin-5-yl)oxy)phenyl)pentan-3-yl)phenoxy)cyclobutyl)amino)isoindolin-1,3-dione]	5	< 10		
Cc1nc(-c2ncc(Oc3ccc(C4(c5ccc(O[C@H]6C[C@H](Nc7ccc8c(c7)C(=O)N(C7CCC(=O)NC7=O)C8=O)C6)cc5)CCCCC4)cc3)cn2)no1 (stereo partly drawn) [Example 339]	2	< 10		
Cc1nc(-c2nccc(COc3ccc(C(C)(C)c4ccc(O[C@H]5C[C@@H](Nc6ccc7c(c6)C(=O)N(C6CCC(=O)NC6=O)C7=O)C5)cc4)cc3)n2)no1 (stereo partly drawn) [Example 278]	6	< 10		
CC(=O)c1ccc(Oc2ccc(C(C)(C)c3ccc(O[C@H]4C[C@@H](Nc5ccc6c(c5)C(=O)N(C5CCC(=O)NC5=O)C6=O)C4)cc3)cc2)cn1 (stereo partly drawn) [Example 525]	8	11 to 100		
CC(O)c1ccc(Oc2ccc(C3(c4ccc(O[C@H]5C[C@H](Nc6ccc7c(c6)C(=O)N(C6CCC(=O)NC6=O)C7=O)C5)cc4)CCCC3)cc2)nn1 (stereo partly drawn) [Example 103]	2	< 10		
CC(=O)c1nccc(COc2ccc(C(C)(C)c3ccc(OCCNc4ccc5c(c4)C(=O)N(C4CCC(=O)NC4=O)C5=O)cc3)cc2)n1 (stereo not drawn) [Example 109, 5-((2-(4-(2-(4-((2-acetylpyrimidin-4-yl)methoxy)phenyl)propan-2-yl)phenoxy)ethyl)amino)-2-(2,6-dioxopiperidin-3-yl) isoindolin-1,3-dione]	9	< 10		
CC(=O)c1nccc(COc2ccc(C3(c4ccc(OCCCNc5ccc6c(c5)C(=O)N(C5CCC(=O)NC5=O)C6=O)cc4)CCC3)cc2)n1 (stereo not drawn) [Example 351, 5-((3-(4-(1-(4-((2-acetylpyrimidin-4-yl)methoxy)phenyl)cyclobutyl)phenoxy)propyl)amino)-2-(2,6-dioxopiperidin-3-yl)isoindolin-1,3-dione]	7	< 10		
CSc1nccc(COc2ccc(C(C)(C)c3ccc(OCCCNc4ccc5c(c4)C(=O)N(C4CCC(=O)NC4=O)C5=O)cc3)cc2)n1 (stereo not drawn) [Example 66]	70	11 to 100		
CC(C)(c1ccc(OCc2ccnc(C(=O)C3CC3)n2)cc1)c1ccc(O[C@H]2C[C@H](Nc3ccc4c(c3)C(=O)N(C3CCC(=O)NC3=O)C4=O)C2)cc1 (stereo partly drawn) [Example 115, 5-(((trans)-3-(4-(2-(4-((2-(cyclopropanecarbonyl)pyrimidin-4-yl)methoxy)phenyl)propan-2-yl)phenoxy)cyclobutyl)amino)-2-(2,6-dioxopiperidin-3-yl)isoindolin-1,3-dione]	5	< 10		
Cc1nc(-c2ncc(Oc3ccc(C4(c5ccc(O[C@H]6C[C@H](Nc7ccc8c(c7)C(=O)N(C7CCC(=O)NC7=O)C8=O)C6)cc5)CCCC4)cc3)cn2)no1 (stereo partly drawn) [Example 293]	2.5	< 10		
CC(O)c1ccc(Oc2ccc(C(C)(C)c3ccc(O[C@H]4C[C@H](Nc5ccc6c(c5)C(=O)N(C5CCC(=O)NC5=O)C6=O)C4)cc3)cc2)cn1 (stereo partly drawn) [Example 123]	7	< 10		
Cc1nc(-c2ncc(Oc3ccc(C(C)(C)c4ccc(OC5CC(Nc6ccc7c(c6)CN([C@H]6CCC(=O)NC6=O)C7=O)C5)cc4)cc3)cn2)no1 (stereo partly drawn) [Example 101]		< 10		2.4
CC(C)(c1ccc(Oc2cccnn2)cc1)c1ccc(O[C@H]2C[C@H](Nc3ccc4c(c3)C(=O)N(C3CCC(=O)NC3=O)C4=O)C2)cc1 (stereo partly drawn) [Example 333, 2-(2,6-dioxopiperidin-3-yl)-5-((1r,3r)-3-(4-(2-(4-(pyridazine-3-oxy)phenyl)propan-2-yl)phenoxy)cyclobutyl)aminoisoindolin-1,3-dione]	3	< 10		
CC(C)(c1ccc(OCc2ccnc(N3CCC[C@H](O)C3)n2)cc1)c1ccc(O[C@H]2C[C@@H](Nc3ccc4c(c3)C(=O)N(C3CCC(=O)NC3=O)C4=O)C2)cc1 (stereo partly drawn) [Example 399]	16	< 10		
CC(C)(c1ccc(Oc2nccc(N3CC4(COC4)C3)n2)cc1)c1ccc(O[C@H]2C[C@H](Nc3ccc4c(c3)C(=O)N(C3CCC(=O)NC3=O)C4=O)C2)cc1 (stereo partly drawn) [Example 156]	10	< 10		
CC(O)c1cnc(Oc2ccc(C(C)(C)c3ccc(O[C@H]4C[C@H](Nc5ccc6c(c5)C(=O)N(C5CCC(=O)NC5=O)C6=O)C4)cc3)cc2)cn1 (stereo partly drawn) [Example 595]	4	< 10		
CC1CN(c2nccc(COc3ccc(C(C)(C)c4ccc(OC5CC(Nc6ccc7c(c6)C(=O)N(C6CCC(=O)NC6=O)C7=O)C5)cc4)cc3)n2)CCN1C (stereo not drawn) [Example 448]	11	11 to 100		
CC(C)(c1ccc(OCCCNc2ccc3c(c2)C(=O)N(C2CCC(=O)NC2=O)C3=O)cc1)c1ccc(OCc2ccnc(-n3ccnn3)n2)cc1 (stereo not drawn) [Example 228, 5-((3-(4-(2-(4-((2-(1H-1,2,3-triazol-1-yl)pyrimidin-4-yl)methoxy)phenyl)propan-2-yl)phenoxy)propyl)amino)-2-(2,6-dioxopiperidin-3-yl)isoindolin-1,3-dione]	22	11 to 100		
CC(C)(c1ccc(Oc2ccc(CN3CC(F)C3)nn2)cc1)c1ccc(O[C@H]2C[C@H](Nc3ccc4c(c3)C(=O)N(C3CCC(=O)NC3=O)C4=O)C2)cc1 (stereo partly drawn) [Example 478]	6	< 10		
CC(C)(c1ccc(Oc2cc(-n3nccn3)ncn2)cc1)c1ccc(O[C@H]2C[C@H](Nc3ccc4c(c3)C(=O)N(C3CCC(=O)NC3=O)C4=O)C2)cc1 (stereo partly drawn) [Example 578]	8	< 10		
CC(C)(c1ccc(Oc2ccc(-n3ccnn3)nc2)cc1)c1ccc(O[C@H]2C[C@H](Nc3ccc4c(c3)C(=O)N(C3CCC(=O)NC3=O)C4=O)C2)cc1 (stereo partly drawn) [Example 207, 5-((1r,3r)-3-(4-(2-(4-((6-(1H-1,2,3-triazol-1-yl)pyridin-3-yl)oxy)phenyl)propan-2-ylphenoxy)cyclobutyl)amino)-2-(2,6-dioxopiperidin-3-yl) isoindolin-1,3-dione]	16	< 10		
CNc1nccc(COc2ccc(C(C)(C)c3ccc(OC4CC(Nc5ccc6c(c5)C(=O)N(C5CCC(=O)NC5=O)C6=O)C4)cc3)cc2)n1 (stereo not drawn) [Example 392]	21	11 to 100		
CC(C)(c1ccc(OCc2ccnc(-c3ncon3)n2)cc1)c1ccc(O[C@H]2C[C@@H](Nc3ccc4c(c3)C(=O)N(C3CCC(=O)NC3=O)C4=O)C2)cc1 (stereo partly drawn) [Example 276]	6	< 10		
CC(C)(c1ccc(Oc2cnnc(-n3nccn3)c2)cc1)c1ccc(O[C@H]2C[C@H](Nc3ccc4c(c3)C(=O)N(C3CCC(=O)NC3=O)C4=O)C2)cc1 (stereo partly drawn) [Example 217]	15	< 10		
CC(=O)c1nccc(COc2ccc(C(C)(C)c3ccc(O[C@H]4C[C@@H](Nc5ccc6c(c5)C(=O)N(C5CCC(=O)NC5=O)C6=O)C4)cc3)cc2)n1 (stereo partly drawn) [Example 491]		< 10	4	
